Patent US11503826B2, “Low volatility auxin herbicide formulations” (priority 2009, dated 2022)
Where a name gives a salt, the structure may show the parent alone.

Legend:
[1] = Aqueous solubility of dicamba acid and dicamba salts; details: for Comments (crystal formation) / solubility 20° C. a.e. / solubility 0° C. a.e. / solubility 0° C. a.i. / solubility 20° C. a.i.: Table 10a; for Comments (crystal formation): dicamba salt solutions; for solubility 20° C. a.e. / solubility 0° C. a.e. / solubility 0° C. a.i. / solubility 20° C. a.i.: dicamba salt; for solubility 20° C. a.e. / solubility 20° C. a.i.: equilibrated 5 to 7 days at 20° C.; for solubility 20° C. a.e.: 0.45 micron filter, HPLC; for solubility 20° C. a.e. / solubility 0° C. a.e.: acid equivalent; for aqueous solubility wt % a.i. @20° C.: dicamba salts; for solubility 0° C. a.e. / solubility 0° C. a.i.: equilibrated 5 to 7 days at 0° C.; for solubility 0° C. a.i. / solubility 20° C. a.i.: active ingredient
Excerpt: The solution was then passed through a 0.45 micron filter and assayed by HPLC for soluble dicamba.

[2] = Distillation volatility: dicamba in distillate by HPLC/MS; format: physicochemical; details: for ppm Dicamba in distillate: Table 4h summary, 5% a.e. salt solution
Method: The pH was measured on a standard Orion Model 320 pH meter of each neat solution.
Simple distillation using a short path still was used to collect the water distillate containing the dicamba in the vapor phase of the salt solutions. A 50 mL distillation flask was used. The distillation receiver was a “cow” type with four 2 mL graduated sections. The solutions were heated at the 30% setting of the GlassCol heating unit and the boiling point of each distillation was noted. The first 2 ml of distillate was collected, and the receiver rotated to avoid collection of any further distillate in that section as the distillation flask cooled. The 2 mL sample was quantitatively transferred by pipette to HPLC vials for later analysis. Between each distillation the distillation apparatus was washed with 10 volumes of tap water, 10 volumes of distilled water, rinsed with acetone, and dried in a 60° C. oven. Each distillation was run in triplicate.
The distillate was collected and analyzed for dicamba concentration using HPLC/Mass Spectroscopy (MS). The HPLC column was an Agilent Zorbax Eclipse XDB-C8, 4.6×150 mm, 5u, PN 993967-90. Mobile phase A was 0.1% formic acid in D.I. water. Mobile phase B was 0.1% formic acid in acetonitrile. A flow rate of 1.2 mL/min was used and an injection volume of 5, 10, 15 or 25 ul was used depending on the dicamba level in the sample. The following gradient was used: […]
The MS parameters were as follows: Type SIR; ES-ion mode; 0.05 second inter channel delay; 0.05 second interscan time; 0.5 span (Da); 10 minutes elapsed time; and 6-6000 ppb calibration range. […] Channel 2 mass was 177 (Da); Dwell was 0.25(s); Cone(V)=tune and; 0.05(s) delay.

[3] = Tank mix compatibility of dicamba salts with potassium glyphosate; format: physicochemical
Excerpt: The weight of the dicamba solution that caused precipitation was noted. The results are reported in Table 12a below where “salt” refers to the dicamba salt and “g to crystals” refers to the total amount of grams of dicamba a.e. that were required to induce crystallization or precipitation of crystals.

[4] = format: physicochemical; details: 5 mL sample, air pulled through tube over PUF approximately 1 day; wt % a.e.: salts 35.8, BANVEL 40, acid 99
Method: In a further set of experiments, measurements of dicamba concentration in the gas phase (air) above 38.5 wt % a.e. solutions of various dicamba salts was measured. 5 mL of each sample of dicamba was placed into a 50 mL plastic centrifuge tube with four holes approximately ⅛ in diameter drilled into the tube at the 10 mL line. A 22 mm×30 mm PUF (SKC ct. #226-124) was placed into a glass tube of app. 20 mm diameter with parafilm wrapped around the outside to obtain a snug fit into the top of the centrifuge tube. A hose was connected to the other end of the glass tube leading to a vacuum line. The air flow was regulated to app. 2 L/min using a flow controller (about 0.4 L air/min-mL sample). Air was pulled through the tube at […] for approximately 1 day. Note that the air conditions of flow rate, temperature, pressure and composition (e.g., relative humidity) are not narrowly critical as long as the various samples are analyzed under similar conditions. For instance, air at from about 5° C. to about 40° C., from about 0.5 to about 1.5 bar pressure, from about 0% to about 95% relative humidity, and at a flow rate of from about 0.1 to 10 L/min-mL sample could be suitably used for volatility analysis. The PUF was removed from the glass tube, extracted with 20 mL methanol and the resulting solution analyzed for dicamba concentration by LC-MS. The results are shown in Table 4i below where “wt % a.e.” refers to the dicamba concentration, “μg/mL” refers to the dicamba concentration in the distillate, “μg dicamba” refers to the total dicamba extracted from the PUF by 20 mL methanol, and “ng/L air” and “moles/L air” refer to the dicamba concentration in the gas phase above the solution.

In the case of NCCOCCO [DGA], the “Comments (crystal formation)” value [1] is reported as “Crystals formed slowly”, the “solubility 20° C. a.e.” value [1] is reported as under 50 wt % and the “Mean Dicamba in Distillate” value ([2]; 1% a.e. dicamba, solution pH 4.23) is reported as 0.46 ppm. The “Mean Dicamba in Distillate” value ([2]; 1% a.e. dicamba, solution pH 6.48) was 0.18 ppm, the “Mean Dicamba in Distillate” value ([2]; 1% a.e. dicamba, solution pH 8.24) was 0.13 ppm and the “Mean Dicamba in Distillate” value ([2]; 1% a.e. dicamba, solution pH 8.88) was 0.12 ppm. The “Mean Dicamba in Distillate” value ([2]; 2% a.e. dicamba, solution pH 4.17) was 1.10 ppm, the “Mean Dicamba in Distillate” value ([2]; 2% a.e. dicamba, solution pH 6.44) was 0.31 ppm and the “Mean Dicamba in Distillate” value ([2]; 2% a.e. dicamba, solution pH 8.22) was 0.28 ppm. The “Mean Dicamba in Distillate” value ([2]; 2% a.e. dicamba, solution pH 8.92) was 0.19 ppm, the “Mean Dicamba in Distillate” value ([2]; 5% a.e. dicamba, solution pH 4.57) was 2.11 ppm and the “Mean Dicamba in Distillate” value ([2]; 5% a.e. dicamba, solution pH 6.35) was 0.75 ppm. The “Mean Dicamba in Distillate” value ([2]; 5% a.e. dicamba, solution pH 8.26) was 0.58 ppm, the “Mean Dicamba in Distillate” value ([2]; 5% a.e. dicamba, solution pH 9.03) was 0.32 ppm and the “ppm Dicamba in distillate” value ([2]; pH 6.35) was 0.8 ppm. For the same compound, the “ppm Dicamba in distillate” value ([2]; pH 8.26) was 0.6 ppm, the Comment ([3]; dicamba salt solution added to […] Roundup POWERMAX solution) was “CLARITY-clear solution with no” and the g to crystals ([3]; grams dicamba a.e. (35.8% a.e. salt solution) added to […] Roundup POWERMAX solution to induce crystallization or precipitation) was over 17 g.
For CNC [DMA], the “Mean Dicamba in Distillate” value ([2]; 1% a.e. dicamba, solution pH 3.25) was 4.50 ppm, the “Mean Dicamba in Distillate” value ([2]; 1% a.e. dicamba, solution pH 4.36) was 0.57 ppm and the “Mean Dicamba in Distillate” value ([2]; 1% a.e. dicamba, solution pH 6.11) was 0.30 ppm. For the same compound, the “Mean Dicamba in Distillate” value ([2]; 1% a.e. dicamba, solution pH 8.53) was 0.73 ppm, the “Mean Dicamba in Distillate” value ([2]; 1% a.e. dicamba, solution pH 10.12) was 1.32 ppm and the “Mean Dicamba in Distillate” value ([2]; 2% a.e. dicamba, solution pH 3.20) was 9.19 ppm. For the same compound, the “Mean Dicamba in Distillate” value ([2]; 2% a.e. dicamba, solution pH 4.25) was 1.08 ppm, the “Mean Dicamba in Distillate” value ([2]; 2% a.e. dicamba, solution pH 5.97) was 0.83 ppm and the “Mean Dicamba in Distillate” value ([2]; 2% a.e. dicamba, solution pH 8.66) was 1.98 ppm. The “Mean Dicamba in Distillate” value ([2]; 2% a.e. dicamba, solution pH 10.24) was 4.88 ppm, the “Mean Dicamba in Distillate” value ([2]; 5% a.e. dicamba, solution pH 3.18) was 20.10 ppm and the “Mean Dicamba in Distillate” value ([2]; 5% a.e. dicamba, solution pH 4.22) was 2.67 ppm. For the same compound, the “Mean Dicamba in Distillate” value ([2]; 5% a.e. dicamba, solution pH 5.58) was 2.06 ppm, the “Mean Dicamba in Distillate” value ([2]; 5% a.e. dicamba, solution pH 8.69) was 8.43 ppm and the “Mean Dicamba in Distillate” value ([2]; 5% a.e. dicamba, solution pH 10.17) was 12.34 ppm. The “ppm Dicamba in distillate” value ([2]; pH 5.58) was 2.1 ppm and the “ppm Dicamba in distillate” value ([2]; pH 8.69) was 8.4 ppm.
With COc1c(Cl)ccc(Cl)c1C(=O)O.NCCOCCO [Dicamba DGA salt, reference compound] the “aqueous solubility Approximate g a.e./L @20° C.” value [1] was 700 g a.e./L, the “aqueous solubility wt % a.e. @20° C.” value [1] was 56.5 wt % a.e and the “aqueous solubility wt % a.e. @20° C.” value ([1]; Table 10b, second experiment, dicamba acid and salts) was 56.5 wt % a.e. The “aqueous solubility wt % a.i. @20° C.” value ([1]; Table 10b, second experiment) was 83.4 wt % a.i and the “crystal formation from concentrated salt solution” value ([1]; solubility experiment, Example 10) was “several weeks”.
In the case of COc1c(Cl)ccc(Cl)c1C(=O)O [Dicamba acid, 3,6-dichloro-2-methoxybenzoic acid], the “aqueous solubility Approximate g a.e./L @20° C.” value ([1]; listed as acid) is reported as 4.5 g a.e./L, the “aqueous solubility wt % a.e. @20° C.” value ([1]; listed as acid) is reported as 0.4 wt % a.e and the “aqueous solubility wt % a.e. @20° C.” value ([1]; Table 10b, second experiment, dicamba acid and salts, listed as acid) is reported as 0.4 wt % a.e. For the same compound, the “dicamba” value [4] was 15.3 µg/mL, the “dicamba concentration in gas phase, moles/L air” value [4] was 1.92 × 10^−10 moles/L air and the “dicamba concentration in gas phase, ng/L air” value [4] was 42.4 ng/L air. The μg dicamba [4] was 305.4 µg.
In the case of COc1c(Cl)ccc(Cl)c1C(=O)O [Dicamba potassium salt], the “aqueous solubility Approximate g a.e./L @20° C.” value ([1]; listed as potassium dicamba) is reported as 720 g a.e./L, the “aqueous solubility wt % a.e. @20° C.” value ([1]; listed as potassium dicamba) is reported as 54.6 wt % a.e and the “Comments (crystal formation)” value ([1]; listed as K) is reported as “Crystals form on”. For the same compound, the “solubility 0° C. a.e.” value ([1]; listed as K) was 52.7 wt %, the “solubility 0° C. a.i.” value ([1]; listed as K) was 61.8 wt % and the “solubility 20° C. a.e.” value ([1]; listed as K) was 54.6 wt %. For the same compound, the “solubility 20° C. a.i.” value ([1]; listed as K) was 64 wt %, the “aqueous solubility wt % a.e. @20° C.” value ([1]; Table 10b, second experiment, dicamba acid and salts, listed as potassium salt) was 54.6 wt % a.e and the “aqueous solubility wt % a.i. @20° C.” value ([1]; Table 10b, second experiment, listed as potassium salt) was 64 wt % a.i. For the same compound, the “ppm Dicamba in distillate” value ([2]; pH 7.06) was 0.6 ppm.
With NCCCCCCN [HMDA] the “Comments (crystal formation)” value [1] was “Pasty solid”, the “solubility 0° C. a.e.” value [1] was 11.2 wt % and the “solubility 0° C. a.i.” value [1] was 14.1 wt %. The “solubility 20° C. a.e.” value [1] was 14.1 wt % and the “solubility 20° C. a.i.” value [1] was 17.8 wt %.
For CC(C)N [IPA], the “Mean Dicamba in Distillate” value ([2]; 1% a.e. dicamba, solution pH 3.41) was 1.42 ppm, the “Mean Dicamba in Distillate” value ([2]; 1% a.e. dicamba, solution pH 4.40) was 0.42 ppm and the “Mean Dicamba in Distillate” value ([2]; 1% a.e. dicamba, solution pH 5.13) was 0.37 ppm. The “Mean Dicamba in Distillate” value ([2]; 1% a.e. dicamba, solution pH 8.10) was 0.72 ppm, the “Mean Dicamba in Distillate” value ([2]; 1% a.e. dicamba, solution pH 9.13) was 1.22 ppm and the “Mean Dicamba in Distillate” value ([2]; 2% a.e. dicamba, solution pH 3.37) was 3.65 ppm. For the same compound, the “Mean Dicamba in Distillate” value ([2]; 2% a.e. dicamba, solution pH 4.36) was 1.42 ppm, the “Mean Dicamba in Distillate” value ([2]; 2% a.e. dicamba, solution pH 5.10) was 0.94 ppm and the “Mean Dicamba in Distillate” value ([2]; 2% a.e. dicamba, solution pH 8.13) was 0.75 ppm. For the same compound, the “Mean Dicamba in Distillate” value ([2]; 2% a.e. dicamba, solution pH 9.20) was 3.43 ppm, the “Mean Dicamba in Distillate” value ([2]; 5% a.e. dicamba, solution pH 3.44) was 5.85 ppm and the “Mean Dicamba in Distillate” value ([2]; 5% a.e. dicamba, solution pH 4.33) was 3.14 ppm. For the same compound, the “Mean Dicamba in Distillate” value ([2]; 5% a.e. dicamba, solution pH 4.94) was 3.77 ppm, the “Mean Dicamba in Distillate” value ([2]; 5% a.e. dicamba, solution pH 8.24) was 2.47 ppm and the “Mean Dicamba in Distillate” value ([2]; 5% a.e. dicamba, solution pH 9.28) was 12.57 ppm. The “ppm Dicamba in distillate” value ([2]; pH 8.24) was 2.5 ppm.
